From patent US10472347B2, “Aminopyrazine compounds with A2A antagonist properties” (Merck Sharp & Dohme Corp., priority 2014, dated 2019)

What follows are compounds tested against T1, human A2a receptor (Homo sapiens, UniProt P29274) (assay: A2a competition binding assay, Scintillation Proximity technology). Details: membranes from HEK293 cells expressing human A2a receptor; Ki by Cheng-Prusoff equation.
T1 construct: purchased Perkin-Elmer RBHA2AM400UA; host or cells: HEK293 cells (membranes)
In short: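 SPA competition: 0.5 nM tritiated pyrazolotriazolopyrimidine ligand displaced by compound at 3000 to 0.15 nM, 1 h room temperature, human A2a HEK293 membranes pretreated with adenosine deaminase, PBS/10 mM MgCl2 buffer. CGS15943 1 μM defined non-specific binding; EC50 converted to Ki via Cheng-Prusoff.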

T1 sequence (P29274 whole entry): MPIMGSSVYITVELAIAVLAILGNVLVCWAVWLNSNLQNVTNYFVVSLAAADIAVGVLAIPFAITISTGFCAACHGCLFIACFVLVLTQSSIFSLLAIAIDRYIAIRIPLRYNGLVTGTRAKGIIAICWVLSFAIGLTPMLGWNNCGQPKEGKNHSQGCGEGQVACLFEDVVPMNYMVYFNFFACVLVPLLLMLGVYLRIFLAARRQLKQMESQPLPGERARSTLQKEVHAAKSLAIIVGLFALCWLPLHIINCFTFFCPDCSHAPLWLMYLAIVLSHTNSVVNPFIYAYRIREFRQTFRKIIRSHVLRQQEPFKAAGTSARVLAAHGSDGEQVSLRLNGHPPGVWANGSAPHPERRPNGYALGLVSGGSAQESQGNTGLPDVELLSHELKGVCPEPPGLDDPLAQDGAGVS

| Ki [nM] | Structure (SMILES) |
| --- | --- |
| 105 | Cc1cnn(-c2nc(N)c(C(=O)NCc3ncccc3C)nc2C)c1 [Ex-341, 3-amino-6-methyl-5-(4-methyl-1H-pyrazol-1-yl)-N-[(3-methylpyridin-2-yl)methyl]pyrazine-2-carboxamide] |
| 122 | Cc1cnn(-c2nc(N)c(C(=O)NCc3nccc4ccccc34)nc2C)c1 [Ex-342, 3-amino-N-(isoquinolin-1-ylmethyl)-6-methyl-5-(4-methyl-1H-pyrazol-1-yl)pyrazine-2-carboxamide] |
| 35.9 | Cc1cnn(-c2nc(N)c(C(=O)NCc3ncccc3C(F)(F)F)nc2Cl)c1 [Ex-343, 3-amino-6-chloro-5-(4-methyl-1H-pyrazol-1-yl)-N-{[3-(trifluoromethyl)pyridin-2-yl]methyl}pyrazine-2-carboxamide] |
| 31 | Cc1cnn(-c2nc(N)c(C(=O)NCc3ccc(F)cc3F)nc2Cl)n1 [Ex-344, 3-amino-6-chloro-N-(2,4-difluorobenzyl)-5-(4-methyl-2H-1,2,3-triazol-2-yl)pyrazine-2-carboxamide] |
| 6 | Cc1cnn(-c2nc(N)c(C(=O)NCc3ncccc3C)nc2Cl)n1 [Ex-345, 3-amino-6-chloro-N-[(3-methylpyridin-2-yl)methyl]-5-(4-methyl-2H-1,2,3-triazol-2-yl)pyrazine-2-carboxamide] |
| 397 | Cc1cnn(-c2nc(N)c(C(=O)NC3CCNc4ccccc43)nc2Cl)n1 (stereo not drawn) [Ex-346, 3-amino-6-chloro-5-(4-methyl-2H-1,2,3-triazol-2-yl)-N-(1,2,3,4-tetrahydroquinolin-4-yl)pyrazine-2-carboxamide] |
| 46.4 | Cc1nc(C(=O)NCc2cccc3cccnc23)c(N)nc1-n1cccn1 [Ex-347, 3-amino-6-methyl-5-(1H-pyrazol-1-yl)-N-(quinolin-8-ylmethyl)pyrazine-2-carboxamide] |
| 10.1 | Cc1cnn(-c2nc(N)c(C(=O)NCc3cccc4cccnc34)nc2Cl)n1 [Ex-348, 3-amino-6-chloro-5-(4-methyl-2H-1,2,3-triazol-2-yl)-N-(quinolin-8-ylmethyl)pyrazine-2-carboxamide] |
| 180 | Cc1cnn(-c2nc(N)c(C(=O)N[C@H](CO)c3ccccc3)nc2Cl)c1 [Ex-349, 3-amino-6-chloro-N-[(1S)-2-hydroxy-1-phenylethyl]-5-(4-methyl-1H-pyrazol-1-yl)pyrazine-2-carboxamide] |
| 630 | Cc1cnn(-c2nc(N)c(C(=O)NCc3ccc4[nH]ccc4c3)nc2Cl)c1 [Ex-350, 3-amino-6-chloro-N-(1H-indol-5-ylmethyl)-5-(4-methyl-1H-pyrazol-1-yl)pyrazine-2-carboxamide] |
| 315 | Cc1cnn(-c2nc(N)c(C(=O)NCc3nc4ccccc4n3C)nc2Cl)c1 [Ex-351, 3-amino-6-chloro-N-[(1-methyl-1H-benzimidazol-2-yl)methyl]-5-(4-methyl-1H-pyrazol-1-yl)pyrazine-2-carboxamide] |
| 51.1 | Cc1cnn(-c2nc(N)c(C(=O)NCc3cccc4cc[nH]c34)nc2Cl)c1 [Ex-352, 3-amino-6-chloro-N-(1H-indol-7-ylmethyl)-5-(4-methyl-1H-pyrazol-1-yl)pyrazine-2-carboxamide] |
| 49 | Cc1cnn(-c2nc(N)c(C(=O)NCc3cccc4[nH]ccc34)nc2Cl)c1 [Ex-353, 3-amino-6-chloro-N-(1H-indol-4-ylmethyl)-5-(4-methyl-1H-pyrazol-1-yl)pyrazine-2-carboxamide] |
| 390 | Cc1cnn(-c2nc(N)c(C(=O)NCc3ccc4cc[nH]c4c3)nc2Cl)c1 [Ex-354, 3-amino-6-chloro-N-(1H-indol-6-ylmethyl)-5-(4-methyl-1H-pyrazol-1-yl)pyrazine-2-carboxamide] |
| 543 | Cc1cnn(-c2nc(N)c(C(=O)NCc3nc4ccccc4s3)nc2Cl)c1 [Ex-355, 3-amino-N-(1,3-benzothiazol-2-ylmethyl)-6-chloro-5-(4-methyl-1H-pyrazol-1-yl)pyrazine-2-carboxamide] |
| 4.3 | Cc1cnn(-c2nc(N)c(C(=O)NCc3nc4ccccc4o3)nc2Cl)c1 [Ex-356, 3-amino-N-(1,3-benzoxazol-2-ylmethyl)-6-chloro-5-(4-methyl-1H-pyrazol-1-yl)pyrazine-2-carboxamide] |
| 69.4 | Cc1cnn(-c2nc(N)c(C(=O)NCc3cccc4nccnc34)nc2Cl)c1 [Ex-357, 3-amino-6-chloro-5-(4-methyl-1H-pyrazol-1-yl)-N-(quinoxalin-5-ylmethyl)pyrazine-2-carboxamide] |

Further lines, the compound ahead of its results:

| Structure (SMILES) | Ki [nM] |
| --- | --- |
| Nc1nc(-n2nccn2)c(Cl)nc1C(=O)NCC1CCCc2cccnc21 (stereo not drawn) [Ex-319, 3-amino-6-chloro-N-(5,6,7,8-tetrahydroquinolin-8-ylmethyl)-5-(2H-1,2,3-triazol-2-yl)pyrazine-2-carboxamide] | 77.9 |
| Nc1nc(-n2nccn2)c(Cl)nc1C(=O)N[C@H](CO)Cc1ccccc1 [Ex-320, 3-amino-N-[(1S)-1-benzyl-2-hydroxyethyl]-6-chloro-5-(2H-1,2,3-triazol-2-yl)pyrazine-2-carboxamide] | 149 |
| Nc1nc(-n2nccn2)c(Cl)nc1C(=O)NCc1ncc[nH]1 [Ex-321, 3-amino-6-chloro-N-(1H-imidazol-2-ylmethyl)-5-(2H-1,2,3-triazol-2-yl)pyrazine-2-carboxamide] | 70.2 |
| CN1CCC(NC(=O)c2nc(Cl)c(-n3nccn3)nc2N)c2ccccc21 (stereo not drawn) [Ex-322, 3-amino-6-chloro-N-(1-methyl-1,2,3,4-tetrahydroquinolin-4-yl)-5-(2H-1,2,3-triazol-2-yl)pyrazine-2-carboxamide] | 61.9 |
| COC(=O)[C@@H](NC(=O)c1nc(Cl)c(-n2nccn2)nc1N)c1ccccc1 [Ex-323, methyl (2S)-({[3-amino-6-chloro-5-(2H-1,2,3-triazol-2-yl)pyrazin-2-yl]carbonyl}amino) (phenyl)ethanoate] | 65.3 |
| Nc1nc(-n2nccn2)c(Cl)nc1C(=O)N[C@H](CO)c1ccccn1 [Ex-324, 3-amino-6-chloro-N-[(1S)-2-hydroxy-1-pyridin-2-ylethyl]-5-(2H-1,2,3-triazol-2-yl)pyrazine-2-carboxamide] | 54 |
| Nc1nc(-n2nccn2)c(Cl)nc1C(=O)N[C@H](CO)Cc1c[nH]c2ccccc12 [Ex-325, 3-amino-6-chloro-N-[(1S)-2-hydroxy-1-(1H-indol-3-ylmethyl)ethyl]-5-(2H-1,2,3-triazol-2-yl)pyrazine-2-carboxamide] | 337 |
| Cc1cccc(CNC(=O)c2nc(Cl)c(-n3nccn3)nc2N)n1 [Ex-326, 3-amino-6-chloro-N-[(6-methylpyridin-2-yl)methyl]-5-(2H-1,2,3-triazol-2-yl)pyrazine-2-carboxamide] | 6.1 |
| Nc1nc(-n2cncn2)c(Cl)nc1C(=O)NCc1ccccc1C(F)(F)F [Ex-327, 3-amino-6-chloro-5-(1H-1,2,4-triazol-1-yl)-N-[2-(trifluoromethyl)benzyl] pyrazine-2-carboxamide] | 55.7 |
| Nc1nc(-n2cncn2)c(Cl)nc1C(=O)NCc1ccc(F)cc1F [Ex-328, 3-amino-6-chloro-N-(2,4-difluorobenzyl)-5-(1H-1,2,4-triazol-1-yl)pyrazine-2-carboxamide] | 627 |
| Nc1nc(-n2cccn2)c(Cl)nc1C(=O)NCc1ccccc1C(F)(F)F [Ex-329, 3-amino-6-chloro-5-(1H-pyrazol-1-yl)-N-[2-(trifluoromethyl)benzyl] pyrazine-2-carboxamide] | 8.6 |
| Nc1nc(-n2cccn2)c(Cl)nc1C(=O)NCc1ccc(F)cc1 [Ex-330, 3-amino-6-chloro-N-(4-fluorobenzyl)-5-(1H-pyrazol-1-yl)pyrazine-2-carboxamide] | 61.5 |
| Nc1nc(-n2cccn2)c(Cl)nc1C(=O)NCc1ccc(F)cc1F [Ex-331, 3-amino-6-chloro-N-(2,4-difluorobenzyl)-5-(1H-pyrazol-1-yl)pyrazine-2-carboxamide] | 75.4 |
| Nc1nc(-n2cccn2)c(Cl)nc1C(=O)NCc1cccc2cccnc12 [Ex-332, 3-amino-6-chloro-5-(1H-pyrazol-1-yl)-N-(quinolin-8-ylmethyl)pyrazine-2-carboxamide] | 4.1 |
| Nc1nc(-n2cccn2)c(Cl)nc1C(=O)N[C@@H]1CCc2ccccc21 [Ex-333, 3-amino-6-chloro-N-[(1R)-2,3-dihydro-1H-inden-1-yl]-5-(1H-pyrazol-1-yl)pyrazine-2-carboxamide] | 57.9 |
| Cc1cccnc1CNC(=O)c1nc(Cl)c(-n2cccn2)nc1N [Ex-334, 3-amino-6-chloro-N-[(3-methylpyridin-2-yl)methyl]-5-(1H-pyrazol-1-yl)pyrazine-2-carboxamide] | 13.7 |
| Cc1cnn(-c2nc(N)c(C(=O)NCc3ccccc3C(F)(F)F)nc2Cl)c1 [Ex-335, 3-amino-6-chloro-5-(4-methyl-1H-pyrazol-1-yl)-N-[2-(trifluoromethyl)benzyl] pyrazine-2-carboxamide] | 114 |
| Cc1cnn(-c2nc(N)c(C(=O)N[C@@H]3CCc4ccccc43)nc2Cl)c1 [Ex-336, 3-amino-6-chloro-N-[(1R)-2,3-dihydro-1H-inden-1-yl]-5-(4-methyl-1H-pyrazol-1-yl)pyrazine-2-carboxamide] | 135 |
| Cc1cnn(-c2nc(N)c(C(=O)NCc3ncccc3C)nc2Cl)c1 [Ex-337, 3-amino-6-chloro-5-(4-methyl-1H-pyrazol-1-yl)-N-[(3-methylpyridin-2-yl)methyl]pyrazine-2-carboxamide] | 11.2 |
| Cc1ccn(-c2nc(N)c(C(=O)NCc3ccccc3C(F)(F)F)nc2Cl)n1 [Ex-338, 3-amino-6-chloro-5-(3-methyl-1H-pyrazol-1-yl)-N-[2-(trifluoromethyl)benzyl] pyrazine-2-carboxamide] | 133 |
| Cc1ccn(-c2nc(N)c(C(=O)N[C@@H]3CCc4ccccc43)nc2Cl)n1 [Ex-339, 3-amino-6-chloro-N-[(1R)-2,3-dihydro-1H-inden-1-yl]-5-(3-methyl-1H-pyrazol-1-yl)pyrazine-2-carboxamide] | 117 |
| Cc1cnn(-c2nc(N)c(C(=O)NCc3cccc4cccnc34)nc2Cl)c1 [Ex-340, 3-amino-6-chloro-5-(4-methyl-1H-pyrazol-1-yl)-N-(quinolin-8-ylmethyl)pyrazine-2-carboxamide] | 12.8 |
